This is an account of results in patent US20260355199A1, “COMPOSITIONS AND METHODS FOR TREATING OR PREVENTING NONALCOHOLIC STEATOHEPATITIS (NASH), ANOREXIA, DEPRESSION, ENDOMETRIOSIS, AND OTHER DISEASES OR DISORDERS” (priority 2022, published 2026).

“Also recorded” adds a separate entry of the source.

One assay relates to TET3 and TET2 mRNA. The experiment in a line: TET3 and TET2 mRNA in human MDMs. More on the design: TET3 and TET2 mRNA levels: dose or concentration left out as unconfirmed. Particulars: 24 h. Type of assay: cell-based. Here is the method:
For siRNA transfection in a 24-well plate scale of MDMs, NT siRNA or TET3 siRNA (4392420/s47239, Ambion) was mixed with 25 μL of OPTI-MEM by gentle pipetting. In parallel, 1.5 μL of Lipofectamine RNAiMAX was mixed with 25 μL of OPTI-MEM by gentle pipetting. Following 5 min of incubation at RT, the resulting 50 μl of transfection solution was added to each well of cells containing 450 μL of growth media.
Bobcat339 Treatment of Cultured Cells Bobcat339 powder (Sigma-Aldrich, SML2611) was freshly dissolved in DMSO at a concentration of 5 mM and filtered through a 0.22 micron. […]
For cultured MDMs, cells were primed with CM-Endo or TGF-β1 (PeproTech, 100-21) for 36-48 h (to increase TET3 expression) before Bobcat339 treatment.
Total RNAs were extracted from cells using PureLink RNA Mini Kit. 0.5-1 μg total RNA was reverse transcribed to cDNA in a reaction volume of 20 μL using PrimeScript RT Reagent Kit. Real-time quantitative PCR was performed in a 15 μL reaction volume containing 0.5-1 μL of cDNA using SsoAdvanced Universal SYBR Green Supermix in a Bio-Rad iCycler. Gene expression levels were normalized against RPLP0.

The test system of a further assay is TET1. Particulars: cited from earlier work.
Assay [1] concerns Lewis lung carcinoma (LLC). The experiment in a line: Syngeneic LLC murine model of lung cancer. Particulars: for body weight gain: day 16 vs. day 0. Type of assay: in vivo, mouse. Here is the method:
Metastatic lung cancer was established by tail vein injection of Lewis lung carcinoma (LLC) (a mouse NSCLC cell line, Bertram et al., 1980, Cancer Lett, 11:63-73) cells into immunocompetent mice (FIG. 30A). Intravenous dosing of Bobcat339 (or vehicle) at 2.5 mg/kg every four days was initiated three days after tumor cell injection. The lungs were collected at day 20 from sacrificed mice. On day 16 as compared to day 0, mice in the Veh group lost ~5% of body weight, whereas those in the Bobcat339 group gained ~6% of body weight, which would be expected for a normal female mouse during this age period (FIG. 30B). […] Severe weight loss is frequently seen in patients with NSCLC, which is also associated with systemic inflammation and cancer cachexia (Staal-van den Brekel et al., 1995, J Clin Oncol, 13:2600-2605; Fredrix et al., 1991, Cancer, 68:1616-1621; Jatoi et al., 2001, Ann Thorac Surg, 72:348-351; Ulmann et al., 2019, Ann Nutr Metab, 75:223-230; Jouinot et al., 2020, Clin Nutr, 39:1893-1899).
Metastatic lung cancer was established by tail vein injection of Lewis lung carcinoma (LLC) (a mouse NSCLC cell line) (Bertram et al., 1980, Cancer Lett, 11:63-73) cells into immunocompetent mice (FIG. 29). Intravenous dosing of Bobcat339 (or vehicle) at 3 mg/kg every four days was initiated three days after tumor cell injection. The lungs were collected at day 20 from sacrificed mice.
LLC cells (2.5×10^5 cells/mouse) were injected into the tail vein of female C57BL/6J mice of 8-weeks old. Mice were randomly divided into vehicle (n=5) and Bobcat339 (n=5) groups. Three days after tumor cell injection, the vehicle group mice received tail vein injection of DMSO and the Bobcat339 group with Bobcat339 at the dose of 2.5 or 3 mg/kg body weight every four days. The animals were sacrificed 20 days after tumor cell injection and lungs were isolated and weighed. The whole lung was fixed in 4% paraformaldehyde overnight at 4 °C and embedded in paraffin for histological analysis and IHC. A second cohort of mice (n=5 in each group) treated as above were used for survival studies using moribund as an experimental endpoint.

The next assay relates to NPY and VGAT. Briefly: NPY and VGAT expression in leptin-treated GT1-7 cells. The format is cell-based, mouse. The note with it: TET3-dependent manner. The procedure: Mouse GT1-7 hypothalamic neuronal cell line (Sigma-Aldrich, SCC116), human SH-SY5Y neuronal blastoma cell line (ATCC, CRL-2266), and embryonic mouse hypothalamus cell line N11 (mHypoE-N11) (Cedarlane, CLU107) were purchased and cultured according to the manufacturers' instructions. For siRNA transfection in a 24-well plate scale, cells were seeded at a density of 2×10^5 cells/well the day before transfection. To prepare siRNA transfection solution for each well of cells, 5 pmol of NT siRNA (non-targeting control siRNA, AM4636, Ambion), Tet3 siRNA (siRNA specifically targeting mouse Tet3, 4390815/s101483, Ambion), or TET3 siRNA (siRNA specifically targeting human TET3, 4392420/s47238, Ambion) (Cao et al., 2019, Oncogene, 38:5356-5366; Xu et al., 2020, Cell Rep., 30:1310-1318) were mixed with 25 μl of OPTI-MEM (Gibco, 31985-070) by gentle pipetting (Cao, T. et al., 2019, Oncogene, 38:5356-5366; Xu, Y. et al., 2020, Cell Reports, 30:1310-1318 e5). In parallel, 1.5 μl of Lipofectamine RNAiMAX (Invitrogen, 13778-150) was mixed with 25 μl of OPTI-MEM by gentle pipetting. Following 5 min of incubation at room temperature, the resulting 50 μl of transfection solution was added to one well of cells containing 1 ml culture media. […]

[2] abbreviates: 2.5 mg/kg i.v. every four days, day 20.

`Nc1nc(=O)n(-c2cccc(-c3ccccc3)c2)cc1Cl` [Bobcat339, 4-Amino-1-[1,1′-biphenyl]-3-yl-5-chloro-2(1H)-pyrimidinone]: in the assay on TET3 and TET2 mRNA (10 μM), the “TET3 and TET2 mRNA” value was “did not alter the mRNA levels of TET3 and TET2; also recorded: no significant differences in their expression”. Besides, the “TET3 and TET2 mRNA levels” value in the assay on TET3 and TET2 mRNA is “did not alter the mRNA levels of TET3 and TET2”. For the same molecule, in the assay on TET1 (in the absence of contaminating copper (II)), the “inhibitory activity against TET1” value is listed as “negligible inhibitory activity”. Further, the “inhibition of enzymatic activity of TET1” value in the assay with TET1 (initially reported) is reported as “inhibit the enzymatic activity”. For the same molecule, in assay [1] (2.5 mg/kg i.v. every four days), the food intake entry is given as “no difference in food intake” and the body weight gain is given as ~ 6%. Besides, in assay [1] (setting [2]), the “LLC metastases in lungs” value is “Fewer LLC metastases” and the lung weight result is recorded as “significantly less”. Also, in assay [1] (3 mg/kg i.v. every four days), the “LLC metastases in lungs” value is “fewer LLC metastases”, the food intake entry is recorded as “no difference in food intake”, the lung weight entry was “significantly less” and the survival rate entry is recorded as “an increased survival rate”. Further, the body weight gain in assay [1] (3 mg/kg i.v. every four days) is on record as ~ 6%.
For the molecule “leptin: adipose hormone; mouse leptin L3772-1MG or human leptin L4146-1MG, Sigma Aldrich”, in the assay on NPY and VGAT, the “NPY and VGAT expression” value was “negatively affected the expression of NPY and VGAT”.
